For 14 compounds, IC50 results are on record in patent publication US20170152269A1, “FUSED BICYCLIC COMPOUNDS AND THEIR USE AS CDK INHIBITORS” (priority 2016, published 2017).

Structures can show the parent of a compound that is named as a salt.

Experiment [1] addresses T1, CDK1 (Homo sapiens, UniProt P06493).
T1 construct: purchased ThermoFisher (Waltham, Mass.)
In words: Lance TR-FRET kinase assay, CDK1. Type of experiment: biochemical. As to conditions: ATP 30 μM, 60 min, read-out: CDK 1 inhibitory activity (IC50). On the procedure: (§1) Time Resolved-Fluorescent Resonance Energy Transfer (TR-FRET) was used to determine inhibitory ability of compounds A1˜A19, B1s and B1˜B12 against the enzymatic activity of CDK1, CDK2, CDK4, CDK5, CDK6, CDK7, and CDK9.
(§2) Inhibitory activity of compounds against CDK1/2/4/5/6/7 was assessed using Lance TR-FRET assay kits from Perkin Elmer Life Sciences (Waltham, Mass.). CDK1/2/4/5/6/7 enzymes were purchased from ThermoFisher (Waltham, Mass.). 2.5 μL of compound solutions and 2.5 μL of enzyme solutions in kinase assay buffer, which was 50 mM HEPES (pH 7.5) with 1 mM EGTA, 1 mM MgCl2, 2 mM DTT, and 0.01% Tween-20, were added into a white OptiPlate-384 plate followed by adding 5 μL of fluorescently labeled peptide substrates (Ulight-4E-BP1 for CDK4/6 and Ulight-MBP for CDK1/2/7/9) and ATP mixture solutions. Final concentrations of substrates and DMSO were 100 nM and 0.5%, respectively. Concentrations of ATP and different CDK enzymes were adjusted accordingly to achieve optimal enzymatic activities. Final CDK concentrations were 100, 500, 600, 100, 50, and 200 ng/well and ATP concentrations were 30, 50, 100, 20, 100, and 50 μM for CDK1/2/4/5/6/7, respectively. Assay plates were covered to protect from light and spun for 1 min at 700 RPM. Reactions were allowed to perform for 60 minutes in dark with gentle shaking at room temperature after which 5 μL of 40 mM EDTA in detection buffer was added to stop reactions followed 5 μL of the Eu labeled antibodies giving final concentrations of 2 nM to detect the phosphorylation of the peptide substrates. Assay plates were read with the EnVision™ Multilabel Reader in TR-FRET mode (excitation at 320 nm and emission at 665 nm). The percent of inhibition was calculated from the means of data points using the formula: 100−(Signalcompound−NoSignalbackground)*100/(Signalvehicle−NoSignalbackground). The IC50s were determined with GraphPad Prism by the non-linear sigmoidal curve fitting of data from 10 doses.

Experiment [2] concerns the target T2, CDK4 (Homo sapiens, UniProt P11802).
T2 construct: purchased ThermoFisher (Waltham, Mass.)
In words: Lance TR-FRET kinase assay, CDK4. Type of experiment: biochemical. Conditions: ATP 100 μM, 60 min, read-out: CDK 4 inhibitory activity (IC50). As to the method: as §2, with “2.5 μL of compound solutions and 2.5 μL of enzyme solutions in kinase assay buffer, which was 50 mM HEPES (pH 7.5) with 1 mM EGTA, 1 mM MgCl2, 2 mM DTT, and 0.01% Tween-20, were added into a white OptiPlate-384 plate followed by adding 5 μL of fluorescently labeled peptide substrates (Ulight-4E-BP1 for CDK4/6 and Ulight-MBP for CDK1/2/7/9) and ATP mixture solutions.” left out, “Assay plates were read with the EnVision™ Multilabel Reader in TR-FRET mode (excitation at 320 nm and emission at 665 nm).” left out
Background: Time-resolved FRET reads energy transfer from a long-lived donor to a nearby acceptor.

Experiment [3] has as its target T3, CDK7 (Homo sapiens, UniProt P50613).
T3 construct: purchased ThermoFisher (Waltham, Mass.)
The experiment in a line: Lance TR-FRET kinase assay, CDK7. Conditions: ATP 50 μM, 60 min, read-out: CDK 7 inhibitory activity (IC50). Type of experiment: biochemical. On the procedure:
as §2, with “2.5 μL of compound solutions and 2.5 μL of enzyme solutions in kinase assay buffer, which was 50 mM HEPES (pH 7.5) with 1 mM EGTA, 1 mM MgCl2, 2 mM DTT, and 0.01% Tween-20, were added into a white OptiPlate-384 plate followed by adding 5 μL of fluorescently labeled peptide substrates (Ulight-4E-BP1 for CDK4/6 and Ulight-MBP for CDK1/2/7/9) and ATP mixture solutions.” left out, “Assay plates were read with the EnVision™ Multilabel Reader in TR-FRET mode (excitation at 320 nm and emission at 665 nm).” left out

Experiment [4] deals with T4, CDK2 (Homo sapiens, UniProt P24941).
T4 construct: purchased ThermoFisher (Waltham, Mass.)
The experiment in a line: Lance TR-FRET kinase assay, CDK2. Conditions: ATP 50 μM, 60 min, read-out: CDK 2 inhibitory activity (IC50). Type of experiment: biochemical. As to the method:
as §1, §2

Experiment [5] addresses T5, CDK9/cyclin T1 (Homo sapiens, UniProt P50750).
T5 construct: purchased ThermoFisher (Waltham, Mass.)
The experiment in a line: LanthaScreen Eu kinase binding assay, CDK9. Conditions: tracer 236 displacement, CDK9/cyclin T1 5 nM, 1 hour; read-out: CDK 9 inhibitory activity (IC50). As to the method:
as §1
The CDK9 kinase inhibitory activity of compounds was tested in the LanthaScreen Eu kinase binding assay from ThermoFisher. LanthaScreen® Eu Kinase binding assays are based on the binding and displacement of a proprietary, Alexa Fluor® 647-labeled, ATP-competitive kinase inhibitor scaffold (kinase tracer) to CDK9. CDK9/cyclin T1, Kinase tracer 236 and LanthaScreen® Eu-anti-His Antibody were purchased form ThermoFisher (Waltham, Mass.). 5 μL of CDK9/cyclin T1 (final 5 nM)/antibody (final 2 nM) mixture, 5 μL of compound in kinase buffer, and 5 μL of tracer (final 30 nM) were added to wells of a white OptiPlate-384 plate in this specific order. Assay plates were covered to protect from light, spun for 1 min at 700 RPM and incubated at room temperature for 1 hour. Assay plates were read with the EnVision™ Multilabel Reader in TR-FRET mode (excitation at 320 nm and emission at 665 nm). The percent of inhibition was calculated from the means of data points using the formula: 100−(Signalcompound−NoSignalbackgound)*100/(Signalvehicle−NoSignalbackground). The IC50s were determined with GraphPad Prism by the non-linear sigmoidal curve fitting of data from 10 doses.

Experiment [6] deals with T6, CDK6 (Homo sapiens, UniProt Q00534).
T6 construct: purchased ThermoFisher (Waltham, Mass.)
T6 sequence (Q00534 whole entry): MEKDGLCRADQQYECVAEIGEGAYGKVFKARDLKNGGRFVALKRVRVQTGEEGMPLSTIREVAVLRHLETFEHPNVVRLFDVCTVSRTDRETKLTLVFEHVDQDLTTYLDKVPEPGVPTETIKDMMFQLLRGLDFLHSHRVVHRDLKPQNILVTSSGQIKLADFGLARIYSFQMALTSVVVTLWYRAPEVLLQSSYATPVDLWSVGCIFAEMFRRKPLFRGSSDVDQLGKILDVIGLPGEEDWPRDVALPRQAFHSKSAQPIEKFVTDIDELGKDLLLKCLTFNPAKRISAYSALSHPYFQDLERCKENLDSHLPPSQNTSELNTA
T6 sequence (P24385 whole entry partner): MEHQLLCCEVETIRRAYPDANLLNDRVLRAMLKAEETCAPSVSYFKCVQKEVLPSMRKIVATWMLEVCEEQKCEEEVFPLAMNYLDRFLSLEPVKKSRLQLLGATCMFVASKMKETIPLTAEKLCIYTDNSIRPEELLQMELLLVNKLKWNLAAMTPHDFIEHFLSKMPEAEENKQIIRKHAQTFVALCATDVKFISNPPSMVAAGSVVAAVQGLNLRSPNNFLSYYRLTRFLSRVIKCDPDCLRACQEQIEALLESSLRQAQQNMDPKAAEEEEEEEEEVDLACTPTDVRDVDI
The experiment in a line: Lance TR-FRET kinase assay, CDK6. Type of experiment: biochemical. On the procedure: as §1, §2

T5 sequence (P50750 whole entry): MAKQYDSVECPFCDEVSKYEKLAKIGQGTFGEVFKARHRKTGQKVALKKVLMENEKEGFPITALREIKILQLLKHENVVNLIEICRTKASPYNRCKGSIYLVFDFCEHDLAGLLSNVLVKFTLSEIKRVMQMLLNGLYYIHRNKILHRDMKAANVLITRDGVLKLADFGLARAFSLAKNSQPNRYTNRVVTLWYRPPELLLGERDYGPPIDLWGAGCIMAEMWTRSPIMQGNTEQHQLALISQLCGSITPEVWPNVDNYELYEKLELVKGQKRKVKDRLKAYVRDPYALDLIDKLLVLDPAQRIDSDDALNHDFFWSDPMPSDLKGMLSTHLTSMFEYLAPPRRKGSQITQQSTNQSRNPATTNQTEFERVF
T5 sequence (O60563 whole entry partner): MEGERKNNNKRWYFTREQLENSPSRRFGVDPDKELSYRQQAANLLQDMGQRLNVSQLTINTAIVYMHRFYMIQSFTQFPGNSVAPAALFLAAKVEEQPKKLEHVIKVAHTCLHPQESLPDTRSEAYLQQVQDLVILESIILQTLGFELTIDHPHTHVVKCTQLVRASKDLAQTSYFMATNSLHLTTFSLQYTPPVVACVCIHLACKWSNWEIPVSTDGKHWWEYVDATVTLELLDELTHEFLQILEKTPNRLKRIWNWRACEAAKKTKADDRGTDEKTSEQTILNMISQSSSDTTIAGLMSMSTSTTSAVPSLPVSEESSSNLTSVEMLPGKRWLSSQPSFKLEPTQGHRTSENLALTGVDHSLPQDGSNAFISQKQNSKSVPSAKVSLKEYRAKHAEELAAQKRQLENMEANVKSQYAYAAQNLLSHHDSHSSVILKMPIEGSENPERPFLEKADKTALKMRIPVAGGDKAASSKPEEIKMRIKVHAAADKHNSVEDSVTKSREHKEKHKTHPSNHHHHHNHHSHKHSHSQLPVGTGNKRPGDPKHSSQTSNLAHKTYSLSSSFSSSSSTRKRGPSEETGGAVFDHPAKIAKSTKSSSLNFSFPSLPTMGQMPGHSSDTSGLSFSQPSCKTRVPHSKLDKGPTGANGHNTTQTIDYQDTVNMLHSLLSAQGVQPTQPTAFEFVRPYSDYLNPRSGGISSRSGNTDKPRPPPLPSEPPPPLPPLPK
T1 sequence (P06493 whole entry): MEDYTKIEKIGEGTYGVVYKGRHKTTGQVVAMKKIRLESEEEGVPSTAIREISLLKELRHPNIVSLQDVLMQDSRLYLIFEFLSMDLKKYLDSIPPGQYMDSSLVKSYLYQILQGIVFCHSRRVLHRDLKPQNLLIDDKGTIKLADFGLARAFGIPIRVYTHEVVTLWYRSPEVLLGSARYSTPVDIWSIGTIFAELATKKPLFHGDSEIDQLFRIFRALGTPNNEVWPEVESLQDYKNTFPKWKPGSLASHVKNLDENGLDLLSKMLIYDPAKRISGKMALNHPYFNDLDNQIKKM
T1 sequence (P14635 whole entry partner): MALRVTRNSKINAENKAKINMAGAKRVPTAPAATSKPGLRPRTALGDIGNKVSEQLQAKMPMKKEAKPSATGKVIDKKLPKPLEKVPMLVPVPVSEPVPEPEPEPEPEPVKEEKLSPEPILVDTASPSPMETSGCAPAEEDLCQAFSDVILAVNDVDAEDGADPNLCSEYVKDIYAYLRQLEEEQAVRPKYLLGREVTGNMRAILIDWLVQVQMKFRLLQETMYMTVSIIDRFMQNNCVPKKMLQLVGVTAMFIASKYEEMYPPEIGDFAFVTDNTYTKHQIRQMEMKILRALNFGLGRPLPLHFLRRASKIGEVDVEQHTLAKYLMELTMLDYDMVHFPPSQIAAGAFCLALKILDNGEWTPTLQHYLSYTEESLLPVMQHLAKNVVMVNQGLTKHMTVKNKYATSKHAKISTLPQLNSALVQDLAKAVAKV
T3 sequence (P50613 whole entry): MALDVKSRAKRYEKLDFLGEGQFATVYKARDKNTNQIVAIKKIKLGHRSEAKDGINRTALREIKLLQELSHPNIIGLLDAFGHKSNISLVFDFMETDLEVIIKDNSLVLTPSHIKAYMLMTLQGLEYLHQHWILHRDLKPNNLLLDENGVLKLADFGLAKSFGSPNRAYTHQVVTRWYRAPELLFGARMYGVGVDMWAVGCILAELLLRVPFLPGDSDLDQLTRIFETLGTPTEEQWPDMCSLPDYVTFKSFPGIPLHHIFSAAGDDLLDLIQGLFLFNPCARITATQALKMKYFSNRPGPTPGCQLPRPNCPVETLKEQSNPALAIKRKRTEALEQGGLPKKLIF
T3 sequence (P51946 whole entry partner): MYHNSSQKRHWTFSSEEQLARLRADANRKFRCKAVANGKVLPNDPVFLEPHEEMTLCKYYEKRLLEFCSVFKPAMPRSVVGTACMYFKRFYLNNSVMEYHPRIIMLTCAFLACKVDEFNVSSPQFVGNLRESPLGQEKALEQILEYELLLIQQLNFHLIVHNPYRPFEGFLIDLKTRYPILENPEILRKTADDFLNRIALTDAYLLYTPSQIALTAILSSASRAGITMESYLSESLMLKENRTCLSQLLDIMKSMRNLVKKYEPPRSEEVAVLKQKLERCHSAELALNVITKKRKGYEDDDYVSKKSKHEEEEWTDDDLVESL
T3 sequence (P51948 whole entry partner): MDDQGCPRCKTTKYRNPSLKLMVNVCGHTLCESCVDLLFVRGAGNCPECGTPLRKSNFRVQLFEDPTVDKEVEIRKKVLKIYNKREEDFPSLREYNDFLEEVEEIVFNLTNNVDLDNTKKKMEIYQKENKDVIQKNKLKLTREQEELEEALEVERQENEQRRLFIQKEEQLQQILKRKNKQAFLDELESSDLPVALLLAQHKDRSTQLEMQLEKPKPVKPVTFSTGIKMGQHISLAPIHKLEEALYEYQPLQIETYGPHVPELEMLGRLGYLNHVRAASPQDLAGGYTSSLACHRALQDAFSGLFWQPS
T2 sequence (P11802 whole entry): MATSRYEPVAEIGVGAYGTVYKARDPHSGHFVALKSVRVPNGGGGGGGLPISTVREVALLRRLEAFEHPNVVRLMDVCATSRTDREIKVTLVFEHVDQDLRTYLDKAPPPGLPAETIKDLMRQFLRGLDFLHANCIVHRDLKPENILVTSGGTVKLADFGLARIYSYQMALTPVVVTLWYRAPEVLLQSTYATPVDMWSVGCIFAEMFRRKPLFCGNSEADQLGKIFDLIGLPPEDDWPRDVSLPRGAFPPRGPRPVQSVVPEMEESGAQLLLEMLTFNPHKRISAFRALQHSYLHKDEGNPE
T2 sequence (P24385 whole entry partner): as the sequence (P24385 whole entry partner) above

As usually defined, the IC50 is the concentration that inhibits the measured activity by half. Turning to `N#Cc1sc2cnc(Nc3ccc(N4CCNCC4)nc3)cc2c1C1CCCC1` [Compound B2, 3-cyclopentyl-5-((6-(piperazin-1-yl)pyridin-3-yl)amino)thieno[2,3-c]pyridine-2-carbonitrile], the IC50 stood at 0.0774 µM in experiment [1]; 0.0024 µM in experiment [2]; 0.0539 µM in experiment [3]; 0.0133 µM in experiment [4]; 0.0066 µM in experiment [5]; 0.001 µM in experiment [6].
As to `N#Cc1sc2cnc(Nc3ccc(N4CCNCC4)cc3)cc2c1C1CCCC1` [Compound B3, 3-cyclopentyl-5-((4-(piperazin-1-yl)phenyl)amino)thieno[2,3-c]pyridine-2-carbonitrile], the IC50 worked out at 0.0151 µM in experiment [1]; 0.0019 µM in experiment [2]; 0.0314 µM in experiment [3]; 0.0052 µM in experiment [4]; 0.0018 µM in experiment [5]; 0.0002 µM in experiment [6].
In the case of `CN(C)C(=O)c1sc2cnc(Nc3cccc(N4CCNCC4)c3)cc2c1C1CCCC1` [Compound A11, 3-cyclopentyl-N,N-dimethyl-5-((3-(piperazin-1-yl)phenyl)amino)thieno[2,3-c]pyridine-2-carboxamide], the IC50 in experiment [2] was determined as 0.16 µM; in experiment [5], 0.058 µM; in experiment [6], 0.05 µM.
For `CN(C)C(=O)c1sc2cnc(Nc3cccc(N4CCOCC4)c3)cc2c1C1CCCC1` [Compound A10, 3-cyclopentyl-N,N-dimethyl-5-((3-morpholinophenyl)amino)thieno[2,3-c]pyridine-2-carboxamide], in that order: 0.262 µM, 0.106 µM and 0.168 µM.
Take `CN1CCN(c2ccc(Nc3cc4c(C5CCCC5)c(C#N)sc4cn3)cc2)CC1` [Compound B4, 3-cyclopentyl-5-((4-(4-methylpiperazin-1-yl)phenyl)amino)thieno[2,3-c]pyridine-2-carbonitrile]: the half-inhibitory concentration (IC50) was 0.0315 µM in experiment [1]; 0.0019 µM in experiment [2]; 0.047 µM in experiment [3]; 0.0104 µM in experiment [4]; 0.0086 µM in experiment [5]; 0.0007 µM in experiment [6].
In the case of `CN(C)C(=O)c1sc2cnc(Nc3ccc(N4CCN(C(=O)C(O)CO)CC4)cn3)cc2c1C1CCCC1` (stereo not shown) [Compound A14, 3-cyclopentyl-5-((5-(4-(2,3-dihydroxypropanoyl)piperazin-1-yl)pyridin-2-yl)amino)-N,N-dimethylthieno[2,3-c]pyridine-2-carboxamide], the IC50 in experiment [1] worked out at 0.273 µM; in experiment [2], 0.0029 µM; in experiment [4], 0.0677 µM; in experiment [5] it was 0.0042 µM; in experiment [6] it was 0.0021 µM.
As for `CC(=O)N1CCN(c2ccc(Nc3cc4c(C5CCCC5)c(C#N)sc4cn3)nc2)CC1` [Compound B12, 5-((5-(4-acetylpiperazin-1-yl)pyridin-2-yl)amino)-3-cyclopentylthieno[2,3-c]pyridine-2-carbonitrile], the IC50 in experiment [1] worked out at 0.0262 µM; in experiment [2], 0.0041 µM; in experiment [3], 9.79 µM; in experiment [4], 0.0103 µM; in experiment [5] it was 0.0025 µM; in experiment [6] it was 0.0014 µM.
Regarding `CN(C)C(=O)c1sc2cnc(Nc3ccc(N4CCNCC4)cn3)cc2c1C1CC1` [Compound A16, 3-cyclopropyl-N,N-dimethyl-5-((5-(piperazin-1-yl)pyridin-2-yl)amino)thieno[2,3-c]pyridine-2-carboxamide], the results for the IC50 in experiment [2], in experiment [5] and in experiment [6] were 0.0321 µM, 0.024 µM and 0.021 µM, respectively.
For the compound `CN1CCN(c2ccc(Nc3cc4c(C5CCCC5)c(C#N)sc4cn3)nc2)CC1` [Compound B5, 3-cyclopentyl-5-((5-(4-methylpiperazin-1-yl)pyridin-2-yl)amino)thieno[2,3-c]pyridine-2-carbonitrile], the IC50 in experiment [1] worked out at 0.0091 µM; in experiment [2] it was 0.0007 µM; in experiment [3], 0.0221 µM; in experiment [4] it was 0.0033 µM; in experiment [5], 0.001 µM; in experiment [6], 0.0003 µM.
In the case of `N#Cc1sc2cnc(Nc3ccc(N4CCNCC4)cn3)cc2c1C1CCCC1` [Compound B1s, 3-cyclopentyl-5-((5-(piperazin-1-yl)pyridin-2-yl)amino)thieno[2,3-c]pyridine-2-carbonitrile hydrochloride], the IC50 in experiment [1] came out at 0.0087 µM; in experiment [2] it was 0.0009 µM; in experiment [3], 0.0072 µM; in experiment [4], 0.0092 µM; in experiment [5], 0.0006 µM.
In the case of `CN(C)C(=O)c1sc2cnc(Nc3ccc(N4CCNCC4)cn3)cc2c1C1CCC(F)(F)C1` (stereo not shown) [Compound A12, 3-(3,3-difluorocyclopentyl)-N,N-dimethyl-5-((5-(piperazin-1-yl)pyridin-2-yl)amino)thieno[2,3-c]pyridine-2-carboxamide], the IC50 in experiment [1] was 3.68 µM; in experiment [2], 0.029 µM; in experiment [4], 1.11 µM; in experiment [6], 0.02 µM.
For the compound `COC1(c2c(C(=O)N(C)C)sc3cnc(Nc4ccc(N5CCNCC5)cn4)cc23)CCCC1` [Compound A6, 3-(1-methoxycyclopentyl)-N,N-dimethyl-5-((5-(piperazin-1-yl)pyridin-2-yl)amino)thieno[2,3-c]pyridine-2-carboxamide], the IC50 stood at 0.501 µM in experiment [1]; 0.0037 µM in experiment [2]; 0.124 µM in experiment [4]; 0.0052 µM in experiment [5]; 0.0021 µM in experiment [6].
Turning to `O=C(c1sc2cnc(Nc3ccc(N4CCNCC4)cn3)cc2c1C1CCCC1)N1CCC1` [Compound A8, azetidin-1-yl(3-cyclopentyl-5-((5-(piperazin-1-yl)pyridin-2-yl)amino)thieno[2,3-c]pyridin-2-yl)methanone], the IC50 was 0.031 µM in experiment [2], 0.552 µM in experiment [5] and 0.084 µM in experiment [6].
For the compound `Cc1c(C(=O)N(C)C)sc2cnc(Nc3ccc(N4CCNCC4)cn3)cc12` [Compound A3, N,N,3-trimethyl-5-((5-(piperazin-1-yl)pyridin-2-yl)amino)thieno[2,3-c]pyridine-2-carboxamide], the IC50 was found to be 0.413 µM in experiment [2], 0.42 µM in experiment [5] and 0.174 µM in experiment [6].
